# Measurements published in the supplement of paper PMC10307832.
# Tests used:
# Test in all cases: relative viability (nuclei count vs DMSO), 5 days (fraction); higher = more cells survive
# CAP-232 = compound: C[C@H]([C@@H](C(=O)N)NC(=O)[C@@H]1CSSC[C@@H](C(=O)N[C@H](C(=O)N[C@@H](C(=O)N[C@H](C(=O)N1)CCCCN)CC2=CNC3=CC=CC=C32)CC4=CC=C(C=C4)O)NC(=O)[C@@H](CC5=CC=CC=C5)N)O [CAP-232]
# Procedure, shortened: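 Viability is treated-well nuclei as a fraction of vehicle-well nuclei, reported as the median across plates. Before counting, lung cancer cell lines were kept overnight at 37 °C in 1536-well plates, pinned with five √10-spaced library-drug doses on vehicle-anchored plates, and left 5 days without medium change, then fixed, permeabilised and Hoechst-stained in one step, imaged at 4× and counted by MetaXpress. A plate passed only if control CV was below 25% and at least one doubling occurred.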
# CAP-232 + Linsitinib = compound: C[C@H]([C@@H](C(=O)N)NC(=O)[C@@H]1CSSC[C@@H](C(=O)N[C@H](C(=O)N[C@@H](C(=O)N[C@H](C(=O)N1)CCCCN)CC2=CNC3=CC=CC=C32)CC4=CC=C(C=C4)O)NC(=O)[C@@H](CC5=CC=CC=C5)N)O [CAP-232] + C[C@]1(O)C[C@@H](c2nc(-c3ccc4ccc(-c5ccccc5)nc4c3)c3c(N)nccn32)C1 [Linsitinib] (partner 1 µM)
# Procedure, shortened: (§1)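 For relative viability, nuclei counts in treated wells were divided by those in vehicle wells. Lung cancer cell lines had been pin-tool dosed in 1536-well plates the day after seeding and cultured for 5 days, then fixed and stained in one step (final 0.05% Triton X-100, 1% formaldehyde, 1 ug/ml Hoechst) and imaged at 4×. Doses were one drug alone or a fixed anchor-drug dose plus five library-drug doses (not always all listed) in √10 steps, and values are duplicate-plate medians.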
# CAP-232 + Crizotinib = compound: C[C@H]([C@@H](C(=O)N)NC(=O)[C@@H]1CSSC[C@@H](C(=O)N[C@H](C(=O)N[C@@H](C(=O)N[C@H](C(=O)N1)CCCCN)CC2=CNC3=CC=CC=C32)CC4=CC=C(C=C4)O)NC(=O)[C@@H](CC5=CC=CC=C5)N)O [CAP-232] + C[C@@H](Oc1cc(-c2cnn(C3CCNCC3)c2)cnc1N)c1c(Cl)ccc(F)c1Cl [Crizotinib] (partner 1 µM)
# Procedure, shortened: as §1
# CAP-232 + Foretinib = compound: C[C@H]([C@@H](C(=O)N)NC(=O)[C@@H]1CSSC[C@@H](C(=O)N[C@H](C(=O)N[C@@H](C(=O)N[C@H](C(=O)N1)CCCCN)CC2=CNC3=CC=CC=C32)CC4=CC=C(C=C4)O)NC(=O)[C@@H](CC5=CC=CC=C5)N)O [CAP-232] + COc1cc2c(Oc3ccc(NC(=O)C4(C(=O)Nc5ccc(F)cc5)CC4)cc3F)ccnc2cc1OCCCN1CCOCC1 [Foretinib] (partner 0.25 µM)
# Procedure, shortened: as §1
# CAP-232 + Phenformin = compound: C[C@H]([C@@H](C(=O)N)NC(=O)[C@@H]1CSSC[C@@H](C(=O)N[C@H](C(=O)N[C@@H](C(=O)N[C@H](C(=O)N1)CCCCN)CC2=CNC3=CC=CC=C32)CC4=CC=C(C=C4)O)NC(=O)[C@@H](CC5=CC=CC=C5)N)O [CAP-232] + N=C(N)NC(=N)NCCc1ccccc1 [Phenformin] (partner 250 µM)
# Procedure, shortened: as §1
Cell Line,relative viability (CAP-232; 0.4 µM),relative viability (CAP-232; 1.265 µM),relative viability (CAP-232; 4 µM),relative viability (CAP-232; 12.65 µM),relative viability (CAP-232 + Linsitinib; first compound 0.4 µM),relative viability (CAP-232 + Linsitinib; first compound 1.265 µM),relative viability (CAP-232 + Linsitinib; first compound 4 µM),relative viability (CAP-232 + Linsitinib; first compound 12.65 µM),relative viability (CAP-232 + Crizotinib; first compound 0.4 µM),relative viability (CAP-232 + Crizotinib; first compound 1.265 µM),relative viability (CAP-232 + Crizotinib; first compound 4 µM),relative viability (CAP-232 + Crizotinib; first compound 12.65 µM),relative viability (CAP-232 + Foretinib; first compound 0.4 µM),relative viability (CAP-232 + Foretinib; first compound 1.265 µM),relative viability (CAP-232 + Foretinib; first compound 4 µM),relative viability (CAP-232 + Foretinib; first compound 12.65 µM),relative viability (CAP-232 + Phenformin; first compound 0.4 µM),relative viability (CAP-232 + Phenformin; first compound 1.265 µM),relative viability (CAP-232 + Phenformin; first compound 4 µM),relative viability (CAP-232 + Phenformin; first compound 12.65 µM)
LXF-289,1.04,1.02,1.06,0.993,1.05,0.952,0.992,0.983,0.843,0.803,0.784,0.841,0.985,0.965,1.01,0.995,0.508,0.519,0.512,0.554
BEN,1.03,1.05,0.989,0.922,0.952,0.944,0.818,0.896,0.859,0.98,0.82,0.772,0.776,0.624,0.595,0.595,0.246,0.231,0.231,0.221
NCI-H2023,0.998,0.883,1.07,0.329,0.659,0.615,0.697,0.249,0.837,0.548,0.693,0.292,0.899,0.946,0.766,0.294,0.448,0.388,0.417,0.188
NCI-H661,0.948,1.04,1.04,0.984,0.488,0.659,0.575,0.462,1,0.947,1.05,1.13,0.986,0.951,1.05,1.02,0.262,0.268,0.278,0.227
NCI-H1355,1.09,0.987,1.13,0.95,0.776,0.901,1.02,0.754,1.02,1.01,1.22,1.27,1.07,1.04,0.945,0.908,0.517,0.467,0.43,0.418
COR-L 105,1.05,0.816,0.992,0.573,0.963,0.816,1.08,0.61,0.863,0.808,0.804,0.581,0.955,0.851,1.22,0.572,0.423,0.429,0.501,0.287
NCI-H2228,1.23,0.976,1.05,0.829,0.596,0.581,0.521,0.646,0.637,0.407,0.526,0.461,0.826,0.938,1.09,0.485,0.38,0.253,0.409,0.221
PC-14,1.12,0.971,1.04,0.755,1.01,0.955,0.955,0.775,1.02,0.861,0.933,0.89,1.06,0.939,1.06,0.86,0.577,0.56,0.659,0.386
EMC-BAC-2,1.19,0.941,0.995,0.866,0.785,0.796,0.821,0.774,0.794,0.753,0.764,0.709,1.1,0.953,1.01,0.907,0.541,0.498,0.526,0.465
LU99A,0.969,0.919,0.986,0.984,0.52,0.504,0.506,0.533,0.486,0.652,0.513,0.561,0.811,0.787,0.977,0.736,0.866,0.751,0.839,0.8
RERF-LC-KJ,1.07,1,0.99,0.935,1.01,0.886,0.933,0.854,0.944,0.919,0.851,0.829,0.87,0.993,0.951,0.884,0.493,0.4,0.388,0.315
NCI-H596,1.12,0.934,0.912,0.976,1.05,1.05,1.14,1.06,1.15,0.988,0.89,1.05,0.863,0.739,0.985,0.827,0.679,0.604,0.899,0.653
LCLC-97TM1,1.02,0.943,0.986,0.965,0.148,0.21,0.218,0.18,0.494,0.347,0.28,0.315,0.879,0.9,1.01,0.925,0.462,0.387,0.463,0.422
NCI-H1993,0.954,0.934,1.09,0.945,0.778,0.758,0.788,0.7,0.884,0.95,0.885,0.835,0.804,0.775,0.829,0.757,0.497,0.541,0.545,0.564
